Measured values reported in PMC11995724, “Antibiotic target discovery by integrated phenotypic and activity-based profiling of electrophilic fragments” (Cell chemical biology, 2025).

Test: in vitro
Conditions: human, hek293t cells

SMILES | viability at 48 h, 25 µM [%]
N#CC(=CC1=Cc2ccccc2OC1)C(=O)NCc1ccccc1 [9-F08, N-benzyl-3-(2H-chromen-3-yl)-2-cyanoprop-2-enamide] | 114
COCC(C)NC(=O)C(C#N)=Cc1cccc(F)c1F (centres unmarked) [9-F09, 2-cyano-3-(2,3-difluorophenyl)-N-(1-methoxypropan-2-yl)prop-2-enamide] | 114
COc1ccc(C=C(C#N)C(=O)Nc2ccc(C(=O)O)cc2)cc1O [9-F10, 4-[2-cyano-3-(3-hydroxy-4-methoxyphenyl)prop-2-enamido]benzoic acid] | 120
Cc1nn(C)c(C)c1C=C(C#N)C(=O)Nc1ccccc1Cl [9-F11, N-(2-chlorophenyl)-2-cyano-3-(1,3,5-trimethyl-1H-pyrazol-4-yl)prop-2-enamide] | 110
CC(=Cc1ccccc1)C=C(C#N)C(=O)NC1CC1 [9-F12, 2-cyano-N-cyclopropyl-4-methyl-5-phenylpenta-2,4-dienamide] | 92.3
N#CC(=Cc1ccccc1Cl)C(=O)NCc1ccccc1 [9-F13, N-benzyl-3-(2-chlorophenyl)-2-cyanoprop-2-enamide] | 80.5
CC(=O)Nc1ccsc1C=C(C#N)C(=O)Nc1ccc(F)cc1 [9-F14, 2-cyano-3-(3-acetamidothiophen-2-yl)-N-(4-fluorophenyl)prop-2-enamide] | 98.4
N#CC(=Cc1sc2ccccc2c1Cl)C(=O)Nc1nccs1 [9-F15, 3-(3-chloro-1-benzothiophen-2-yl)-2-cyano-N-(1,3-thiazol-2-yl)prop-2-enamide] | 117
N#CC(=Cc1ccco1)C(=O)NCc1ccc(-c2cccnc2)cc1 [9-F16, 2-cyano-3-(furan-2-yl)-N-{[4-(pyridin-3-yl)phenyl]methyl}prop-2-enamide] | 100
N#CC(=Cc1ccc(N2CCOCC2)cc1)C(=O)Nc1nccs1 [9-F17, 2-cyano-3-[4-(morpholin-4-yl)phenyl]-N-(1,3-thiazol-2-yl)prop-2-enamide] | 95.6
CNC(=O)Cn1ccc2ccc(NC(=O)C(C#N)=Cc3ccco3)cc21 [9-F18, 2-cyano-3-(furan-2-yl)-N-{1-[(methylcarbamoyl)methyl]-1H-indol-6-yl}prop-2-enamide] | 109
COc1ccc(NC(=O)C(C#N)=Cc2ccco2)cc1 [9-F19, 2-cyano-3-(furan-2-yl)-N-(4-methoxyphenyl)prop-2-enamide] | 94.6
N#CC(=Cc1ccc(Oc2cnccn2)cc1)C(=O)NC1CCCC1 [9-F20, 2-cyano-N-cyclopentyl-3-[4-(pyrazin-2-yloxy)phenyl]prop-2-enamide] | 95.3
N#CC(=Cc1cccc(O)c1)C(=O)NCc1ccco1 [9-F21, 2-cyano-N-[(furan-2-yl)methyl]-3-(3-hydroxyphenyl)prop-2-enamide] | 119
COc1cc(C=C(C#N)C(=O)Nc2cccc3ncccc23)ccc1O [9-F22, 2-cyano-3-(4-hydroxy-3-methoxyphenyl)-N-(quinolin-5-yl)prop-2-enamide] | 112
CCCNC(=O)C(C#N)=Cc1ccns1 [9-G03, 2-cyano-N-propyl-3-(1,2-thiazol-5-yl)prop-2-enamide] | 128
N#CC(=Cc1ccccc1O)C(=O)Nc1cccc2ncccc12 [9-G04, 2-cyano-3-(2-hydroxyphenyl)-N-(quinolin-5-yl)prop-2-enamide] | 123
N#CC(=Cc1cccc2c1OCCCO2)C(=O)NCc1ccccc1 [9-G05, N-benzyl-2-cyano-3-(3,4-dihydro-2H-1,5-benzodioxepin-6-yl)prop-2-enamide] | 114

SMILES | viability at 48 h, 25 µM [%]
CCOc1cc(C=C(C#N)C(=O)Nc2cccc(C)c2)ccc1O [9-G06, 2-cyano-3-(3-ethoxy-4-hydroxyphenyl)-N-(3-methylphenyl)prop-2-enamide] | 105
CCCn1c(C)cc(C=C(C#N)C(=O)Nc2ccc3c(c2)OCO3)c1C [9-G07, N-(1,3-dioxaindan-5-yl)-2-cyano-3-(2,5-dimethyl-1-propyl-1H-pyrrol-3-yl)prop-2-enamide] | 100
COc1cccc(C=C(C#N)C(=O)Nc2ccccc2C(=O)O)c1 [9-G08, 2-[2-cyano-3-(3-methoxyphenyl)prop-2-enamido]benzoic acid] | 102
COc1ccc(NC(=O)C(C#N)=Cc2c(Cl)nc3ccccn23)cc1 [9-G09, 3-{2-chloroimidazo[1,2-a]pyridin-3-yl}-2-cyano-N-(4-methoxyphenyl)prop-2-enamide] | 121
N#CC(=Cc1ccc(O)c([N+](=O)[O-])c1)C(=O)Nc1ccccc1C(=O)O [9-G10, 2-[2-cyano-3-(4-hydroxy-3-nitrophenyl)prop-2-enamido]benzoic acid] | 118
CCCCNC(=O)C(C#N)=Cc1ccc2c(c1)OCCO2 [9-G11, N-butyl-2-cyano-3-(2,3-dihydro-1,4-benzodioxin-6-yl)prop-2-enamide] | 106
COc1cc(C=C(C#N)C(=O)NC2CC2)ccc1O [9-G12, 2-cyano-N-cyclopropyl-3-(4-hydroxy-3-methoxyphenyl)prop-2-enamide] | 110
N#CC(=Cc1ccc(Cl)cc1)C(=O)NCc1ccccc1 [9-G13, N-benzyl-3-(4-chlorophenyl)-2-cyanoprop-2-enamide] | 104
COc1ccc(C=C(C#N)C(=O)Nc2ccc(C(=O)O)cc2)cc1C [9-G14, 4-[2-cyano-3-(4-methoxy-3-methylphenyl)prop-2-enamido]benzoic acid] | 108
N#CC(=Cc1ccc(OC(F)F)cc1)C(=O)Nc1ccccc1 [9-G15, 2-cyano-3-[4-(difluoromethoxy)phenyl]-N-phenylprop-2-enamide] | 139
CC1CC1c1ccc(C=C(C#N)C(=O)Nc2ccc(C(=O)O)cc2)o1 (centres unmarked) [9-G16, 4-{2-cyano-3-[5-(2-methylcyclopropyl)furan-2-yl]prop-2-enamido}benzoic acid] | 133
Cc1cccc(C)c1NC(=O)C(C#N)=Cc1ccc(C(=O)O)cc1 [9-G17, 4-{2-cyano-2-[(2,6-dimethylphenyl)carbamoyl]eth-1-en-1-yl}benzoic acid] | 111
N#CC(=Cc1ccc(-c2cccc([N+](=O)[O-])c2)s1)C(=O)NC1CC1 [9-G18, 2-cyano-N-cyclopropyl-3-[5-(3-nitrophenyl)thiophen-2-yl]prop-2-enamide] | 103
Cc1ccc(NC(=O)C(C#N)=Cc2ccc(OC(F)F)cc2)c(C)c1 [9-G19, 2-cyano-3-[4-(difluoromethoxy)phenyl]-N-(2,4-dimethylphenyl)prop-2-enamide] | 90.4
COc1cc(C=C(C#N)C(=O)Nc2cccc(Cl)c2)cc(O)c1O [9-G20, N-(3-chlorophenyl)-2-cyano-3-(3,4-dihydroxy-5-methoxyphenyl)prop-2-enamide] | 72.4
Cn1c(CNC=C(C#N)C(=O)Nc2ccccc2)cc(=O)n(C)c1=O [9-G21, 2-cyano-3-{[(1,3-dimethyl-2,6-dioxo-1,2,3,6-tetrahydropyrimidin-4-yl)methyl]amino}-N-phenylprop-2-enamide] | 115
N#CC(=Cc1ccc(O)cc1)C(=O)Nc1ccc(Cl)cc1Cl [9-G22, 2-cyano-N-(2,4-dichlorophenyl)-3-(4-hydroxyphenyl)prop-2-enamide] | 82.3
